Data taken from US10934253B2, “Therapeutic compounds and methods” (UNIVERSITY OF TASMANIA, priority 2017, dated 2021).

What was measured:
HepG2 cells = assay: Acute ATP rescue assay (impaired mitochondrial function, rotenone); format: cell-based; details: Homo sapiens, 1 h; HepG2; 1 μM quinones with rotenone 10 μM, 60 minutes, glucose-free DMEM; % ATP compared to untreated (no-rotenone) control
Procedure: HepG2 cells were seeded at a density of 5000 cells per well in a 96-well plate and incubated for 24 hours in DMEM with 0.3 g/l glucose, 10% FBS and Penicillin-Streptomycin-Glutamine. Cells were treated with 1 μM quinones in presence or absence of rotenone (10 μM), for 60 minutes in glucose-free DMEM ATP levels were quantified using luminescence from the ATP-dependent enzymatic oxidation of luciferin by luciferase. Cells were lysed in a volume of 40 μl (4 mM EDTA, 0.2% Triton X-100) for five minutes at room temperature (RT) on an orbital shaker at 200 rpm. […] Luminescence was quantified immediately using a multimode plate reader (Fluoroscan Ascent, Thermo Scientific). ATP levels were standardized to protein levels using a commercial BCA assay (Protein DC; BioRad) and changes were calculated as percentage relative to levels of DMSO-treated control cells. Data is expressed as % ATP compared to the untreated (no-rotenone) control.
Vitamin K, menadione and idebenone were used as comparative controls. DMSO was used as a control.

[1] = tested on: LHON model induced by intravitreal rotenone in C57BL/6 mouse; assay: Leber's hereditary optic neuropathy (LHON) mouse model, optomotor response; format: in vivo; details: rotenone in left eye, 200 mg/kg orally in food
Procedure: FIG. 5: Efficacy of representative compounds of Formula (I) in leber's hereditary optic neuropathy (LHON) mouse model. LHON induced by rotenone injection in the left eye (5 μM) in C57BL/6 mouse model (Refer to Heitz, F. D et al. (2012). PLoS One., 7(9), e45182). […] Representative compounds (UTA 37 and UTA 77) and idebenone administered at 200 mg/kg over the observation period.
LHON model was induced by intravitreal injection of rotenone into the left eye in C57BL/6 mouse model as described by Heitz et al. 2012. Representative compounds (UTA 37 and UTA 77) and idebenone administered at 200 mg/kg over the observation period. Vision loss was measured by assessing number of head turns.
C57BL/6 mice (male, 8-11 weeks of age, average body weight≈25 g) were used in accordance with the Australian code for the use of animals for scientific purposes and under the required animal ethics approval from the University of Tasmania (UTAS) Animal Ethics Committee (Approval number A0016080). Animals were given at least seven days to acclimatise to the animal facility to reduce stress induced by transportation before being used for behavioural testing. All mice were supplied orally with test compounds by mixing test compounds into individual daily food portions as described previously (Heitz, F. D. et al. (2012). PLoS One., 7(9), e45182). […]

COc1ccc(CCNC(=O)CCCC2=C(C)C(=O)c3ccccc3C2=O)cc1OC [UTA #77, N-(3,4-dimethoxyphenethyl)-4-(3-methyl-1,4-naphthoquinone-2-yl)butanamide]
activity at 1 µM (HepG2 cells): 99.1%
Protection of visual acuity (head turns, optomotor response; in words) [1]: Statistically significant protection of visual acuity
